{
  "source": "patent US11571398B1",
  "about": "“Compositions comprising ephedrine or an ephedrine salt and methods of making and using same” (Nexus Pharmaceuticals, Inc., priority 2019, dated 2023)",
  "key": {"[1]": {"test": "HPLC-UV-CAD (QTOF LC-MS) extractables of stoppers: 50/50 IPA/Water extract", "type": "physicochemical", "details": "stopper extract, reflux 12 hours, relative quantitation against standard (12-HDA, Irgacure 184 or Oleamide), average of duplicate injections"}, "[2]": {"test": "HPLC-UV-CAD (QTOF LC-MS) extractables of stoppers: pH 9.4 extract", "type": "physicochemical", "details": "stopper extract, water pH 9.4, reflux 20 hours; relative quantitation against standard (12-HDA, Irgacure 184 or Oleamide); average of duplicate injections"}, "[3]": {"details": "for ICP-MS Results (ppb) Glass vials (2% HNO3): glass vials extracted in 2% HNO3, 60° C.; for ICP-MS Results (ppb) Glass vials (2% HNO3) / ICP-MS Results (ppb) Stoppers (2% HNO3): ~24 h; for ICP-MS Results (ppb) Stoppers (2% HNO3): stoppers extracted in 2% HNO3, 60° C."}, "[4]": {"details": "2.5 ppb = lowest calibration concentration"}, "[5]": {"details": "stoppers, refluxed aqueous solution pH 3.4, 2.5 ppb = lowest calibration concentration"}},
  "note": "Where two headings read alike, the source gives them in different places.",
  "data": [
    {"compound": "CCCCCCCCCCCCCCCCCC(N)=O", "note": "[Stearamide]", "values": [
      {"measurement": "Est. Conc. of extractable (possible identification), HPLC-UV-CAD", "setting": "[1]", "value": "<0.5", "unit": "µg/mL"}
    ]},
    {"compound": "OCCOCCOCCO", "note": "[Triethylene glycol]", "values": [
      {"measurement": "Est. Conc. of extractable (possible identification), HPLC-UV-CAD", "setting": "[2]", "value": "<0.5", "unit": "µg/mL"},
      {"measurement": "Est. Conc. of extractable (possible identification), HPLC-UV-CAD", "setting": "[1]", "value": "<0.5", "unit": "µg/mL"}
    ]},
    {"compound": "Laureth-3", "values": [
      {"measurement": "Est. Conc. of extractable (possible identification), HPLC-UV-CAD", "setting": "[1]", "value": "<0.5", "unit": "µg/mL"}
    ]},
    {"compound": "CCCCCC[C@@H](O)C/C=C\\CCCCCCCC(=O)O", "note": "[Ricinoleic acid]", "values": [
      {"measurement": "Est. Conc. of extractable (possible identification), HPLC-UV-CAD", "setting": "[1]", "value": "<0.5", "unit": "µg/mL"}
    ]},
    {"compound": "CCCC(=O)C(O)c1ccccc1", "note": "(stereo not shown) [Lot 1-Hydroxy-1-phenyl-2-pentanone]", "values": [
      {"measurement": "Est. Conc. of extractable (possible identification), HPLC-UV-CAD", "setting": "[2]", "value": 0.10, "unit": "µg/mL"},
      {"measurement": "Est. Conc. of extractable (possible identification), HPLC-UV-CAD", "setting": "[1]", "value": 30.47, "unit": "µg/mL"}
    ]},
    {"compound": "Copper", "values": [
      {"measurement": "ICP-MS Results (ppb) Glass vials (2% HNO3)", "setting": "[3]; [4]", "value": 3.7, "unit": "ppb"},
      {"measurement": "ICP-MS Results (ppb) Stoppers (Reflux pH 3.4)", "setting": "[3]; pH 3.4", "value": "<2.5", "unit": "ppb"}
    ]},
    {"compound": "CCCCCCCCCCCC(=O)NCCC[N+](C)(C)CC(=O)[O-]", "note": "[Lauramidopropyl betaine]", "values": [
      {"measurement": "Est. Conc. of extractable (possible identification), HPLC-UV-CAD", "setting": "[1]", "value": "<0.5", "unit": "µg/mL"}
    ]},
    {"compound": "CCCCCCCCCCCCOS(C)(=O)=O", "note": "[Dodecyl methanesulfonate]", "values": [
      {"measurement": "Est. Conc. of extractable (possible identification), HPLC-UV-CAD", "setting": "[1]", "value": 0.65, "unit": "µg/mL"}
    ]},
    {"compound": "CCCCCCCCCCCC(=O)O", "note": "[Lauric acid]", "values": [
      {"measurement": "Est. Conc. of extractable (possible identification), HPLC-UV-CAD", "setting": "[1]", "value": "<0.5", "unit": "µg/mL"}
    ]},
    {"compound": "Laureth-4", "values": [
      {"measurement": "Est. Conc. of extractable (possible identification), HPLC-UV-CAD", "setting": "[1]", "value": "<0.5", "unit": "µg/mL"}
    ]},
    {"compound": "Lead", "values": [
      {"measurement": "ICP-MS Results (ppb) Glass vials (2% HNO3)", "setting": "[3]; [4]", "value": "<2.5", "unit": "ppb"},
      {"measurement": "ICP-MS Results (ppb) Stoppers (2% HNO3)", "setting": "[3]; [4]", "value": "<2.5", "unit": "ppb"},
      {"measurement": "ICP-MS Results (ppb) Stoppers (Reflux pH 3.4)", "setting": "[3]; [5]", "value": "<2.5", "unit": "ppb"}
    ]},
    {"compound": "CCCCOCCOCCOC(C)=O", "note": "[Butyldiglycol acetate]", "values": [
      {"measurement": "Est. Conc. of extractable (possible identification), HPLC-UV-CAD", "setting": "[1]", "value": "<0.5", "unit": "µg/mL"}
    ]},
    {"compound": "CCCCCCCCCCCCCCCC(=O)O", "note": "[Palmitic acid]", "values": [
      {"measurement": "Est. Conc. of extractable (possible identification), HPLC-UV-CAD", "setting": "[1]", "value": 10.74, "unit": "µg/mL"}
    ]},
    {"compound": "Cc1cc(C(C)(C)C)cc(S(=O)(=O)O)c1", "note": "[5-(tert-Butyl)-3-toluenesulfonic acid]", "values": [
      {"measurement": "Est. Conc. of extractable (possible identification), HPLC-UV-CAD", "setting": "[1]", "value": 0.25, "unit": "µg/mL"}
    ]},
    {"compound": "CCCCCCCC/C=C\\CCCCCCCC(N)=O", "note": "[Oleamide]", "values": [
      {"measurement": "Est. Conc. of extractable (possible identification), HPLC-UV-CAD", "setting": "[1]", "value": "<0.5", "unit": "µg/mL"}
    ]},
    {"compound": "Arsenic", "values": [
      {"measurement": "ICP-MS Results (ppb) Glass vials (2% HNO3)", "setting": "[3]; [4]", "value": "<2.5", "unit": "ppb"},
      {"measurement": "ICP-MS Results (ppb) Stoppers (2% HNO3)", "setting": "[3]; [4]", "value": "<2.5", "unit": "ppb"},
      {"measurement": "ICP-MS Results (ppb) Stoppers (Reflux pH 3.4)", "setting": "[3]; [5]", "value": "<2.5", "unit": "ppb"}
    ]},
    {"compound": "Lithium", "values": [
      {"measurement": "ICP-MS Results (ppb) Glass vials (2% HNO3)", "setting": "[3]; [4]", "value": 2.6, "unit": "ppb"},
      {"measurement": "ICP-MS Results (ppb) Stoppers (Reflux pH 3.4)", "setting": "[3]; pH 3.4", "value": "<2.5", "unit": "ppb"}
    ]},
    {"compound": "O=S(O)S(=O)O", "note": "[Dithionous acid]", "values": [
      {"measurement": "Est. Conc. of extractable (possible identification), HPLC-UV-CAD", "setting": "[2]", "value": 3.52, "unit": "µg/mL"}
    ]},
    {"compound": "Cobalt", "values": [
      {"measurement": "ICP-MS Results (ppb) Glass vials (2% HNO3)", "setting": "[3]; [4]", "value": 2.6, "unit": "ppb"},
      {"measurement": "ICP-MS Results (ppb) Stoppers (Reflux pH 3.4)", "setting": "[3]; pH 3.4", "value": "<2.5", "unit": "ppb"}
    ]},
    {"compound": "C1COCCOCCSSCCOCCO1", "values": [
      {"measurement": "Est. Conc. of extractable (possible identification), HPLC-UV-CAD", "setting": "[1]", "value": "<0.5", "unit": "µg/mL"}
    ]},
    {"compound": "Laureth-9", "values": [
      {"measurement": "Est. Conc. of extractable (possible identification), HPLC-UV-CAD", "setting": "[1]", "value": "<0.5", "unit": "µg/mL"}
    ]},
    {"compound": "Cadmium", "values": [
      {"measurement": "ICP-MS Results (ppb) Glass vials (2% HNO3)", "setting": "[3]; [4]", "value": "<2.5", "unit": "ppb"},
      {"measurement": "ICP-MS Results (ppb) Stoppers (2% HNO3)", "setting": "[3]; [4]", "value": "<2.5", "unit": "ppb"},
      {"measurement": "ICP-MS Results (ppb) Stoppers (Reflux pH 3.4)", "setting": "[3]; [5]", "value": "<2.5", "unit": "ppb"}
    ]},
    {"compound": "CCCCCCCCCCCCCC(=O)O", "note": "[Myristic acid]", "values": [
      {"measurement": "Est. Conc. of extractable (possible identification), HPLC-UV-CAD", "setting": "[1]", "value": "<0.5", "unit": "µg/mL"}
    ]},
    {"compound": "CCCCCCCCCCCCCCCC(N)=O", "note": "[Palmitamide]", "values": [
      {"measurement": "Est. Conc. of extractable (possible identification), HPLC-UV-CAD", "setting": "[1]", "value": "<0.5", "unit": "µg/mL"}
    ]},
    {"compound": "Antimony", "values": [
      {"measurement": "ICP-MS Results (ppb) Glass vials (2% HNO3)", "setting": "[3]; [4]", "value": "<2.5", "unit": "ppb"},
      {"measurement": "ICP-MS Results (ppb) Stoppers (Reflux pH 3.4)", "setting": "[3]; pH 3.4", "value": "<2.5", "unit": "ppb"}
    ]}
  ]
}
